Data set [1] can be described thus: physchem. Conditions: saline.
Data set [2] in a line: physchem. Conditions: methanol:water:HCl, pH 1.

≈ marks a conversion by molar mass, not a printed value.

On to `Clc1cccc(Nc2nnc(-c3ccccc3)c3ccccc23)c1`, for which, in “physchem [1]”, the solubility (commonly the dissolved amount per volume that the medium holds) at 24 h stood at 63 µg/mL (≈ 190 µM).

As to `COc1ccc(CNc2nn(C)c3ccc(C(F)(F)F)cc23)cc1`, the amount remaining (usually what is left of the initial amount, in per cent) at 96 h in “physchem [2]” came out at 100%.

In turn, `COc1ccc(CNc2nn(-c3cccnc3)c3ccc(C(F)(F)F)cc23)cc1` showed a solubility at 24 h in “physchem [1]” of 15 µg/mL (≈ 37.7 µM). In the data set “physchem [2]”, this compound registered an amount remaining at 96 h of 100%.
